# Tests used:
# [1] = tested on: Rhizopus stolonifer; test: B.4 Protective action against Rhizopus stolonifer on rye bread (Pumpernickel); settings: Pumpernickel slices; mixtures 1:50 diluted with water, sorbic acid 0.1% solution; after one week of incubation
# Procedure: B.4 Protective Action Against Rhizopus stolonifer on Rye Bread (“Pumpernickel”)
# Sterile slices of Pumpernickel were each sprayed with water (control), a 0.1% sorbic acid solution (a standard preservative) or the mixture of example 1 or of example 8 (1:50 diluted with water). For inoculation with the fungus, small disks of blotting paper were soaked with a spore suspension of Rhizopus stolonifer and placed onto the center of Pumpernickel slices. After one week of incubation, the degree of fungus formation was examined.
# [2] = tested on: powdery mildew; settings: dogwood plants; untreated control 30%; from U.S. Pat. Nos. 5,736,164 and 5,800,837; cited from earlier work
# [3] = tested on: Plasmopara viticola; test: B.5.1 Protective and curative treatment against Plasmopara viticola in grapevines (half-leaf); format: in vivo; settings: example 12 diluted 1:100, examples 13/14 1:200, 0.05% Silwet L-77, ca. 2 μl/cm2, 6 days after first inoculation
# Procedure: (§1) Potted grapevines were inoculated with Plasmopara viticola both before foliar treatment with the active agent and after washing the active agent coating off the leaves in order to test the effect of the residual depot of actives. To ensure a good comparability of the results and avoid or at least strongly minimize falsification of the effects, e.g. due to the use of leaves of different physiological age or of different expositions, a half-leaf treatment was carried out: In each case only one half of a leaf was treated, while the other half remained untreated and served as a control and reference for determining efficacy; the two halves being separated by the middle leaf vein. […]
# 6 days after the first inoculation the plants were placed for 12 h into a humid chamber and then the extent of infection was determined visually and the efficacy W was calculated from the infected leave surface according to the above Abbot's formula.
# The expected efficacies for active compound combinations (i.e. secondary magnesium and calcium phosphonate) were determined using Colby's formula (Colby, S. R., “Calculating synergistic and antagonistic responses of herbicide combinations”, Weeds, 15, pp. 20-22, 1967) and compared to the observed efficacies. […]
# [4] = tested on: Plasmopara viticola; test: B.5.2 Curative treatment against Plasmopara viticola in grapevines; format: in vivo; settings: without second inoculation, half-leaf, example 12 diluted 1:100, examples 13/14 1:200, 5 days after inoculation
# Procedure: as §1, with “vein. For this purpose a precision sprayer was used for applying the active compounds on the one leaf half, while the half which was to stay untreated was covered with a blotting paper during spraying.” for “vein.”
# (§2) The experiment was carried out in analogy to B.5.1, however without the second inoculation. 5 days after the inoculation the plants were placed for 12 h into a humid chamber and then the extent of infection was determined visually and the efficacy W was calculated from the infected leave surface according to Abbot's formula. The expected efficacies for active compound combinations (i.e. secondary magnesium and calcium phosphonate) were determined using Colby's formula.
# [5] = tested on: Plasmopara viticola; test: B.5.3 Protective treatment against Plasmopara viticola in grapevines; format: in vivo; settings: without first inoculation, washed after 24 h, example 12 diluted 1:100, examples 13/14 1:200, 5 days after inoculation
# Procedure: as §1, with “vein. For this purpose a precision sprayer was used for applying the active compounds on the one leaf half, while the half which was to stay untreated was covered with a blotting paper during spraying.” for “vein.”
# as §2, with “the first” for “the second”
# [6] = tested on: Erysiphe graminis; test: B.6 Protective treatment against Erysiphe graminis in wheat; format: in vivo; settings: wheat cultivar Kanzler sprayed to runoff, example 12 diluted 1:100, examples 13/14 1:200, inoculated after 24 h, 18 days after treatment
# Procedure: For a treatment according to the invention, the reaction mixture obtained in example 12 was diluted with water in 1:100 v/v ratio, then 0.05% Silwet® L-77 was added. For comparison, the reaction mixtures obtained in examples 13 and 14, respectively, were diluted with water in 1:200 v/v ratio, then 0.05% Silwet® L-77 was added.
# B.6 Protective Treatment Against Erysiphe graminis in Wheat
# In a greenhouse, wheat plants of the cultivar Kanzler with 2-3 fully developed leaves were sprayed to runoff-point with either a suspension of the product of example 13 containing secondary magnesium phosphonate, or of the product of example 14 containing secondary calcium phosphonate, or of the product of example 12 containing secondary calcium and magnesium phosphonate; in each case diluted and supplemented with a wetting agent as defined in example B.5.1. After 24 h the plants were inoculated with conidia of Erysiphe graminis. 18 days after the treatment with the active compounds the extent of infection (formation of conidia) was determined visually and the efficacy W was calculated from the infected leave surface according to Abbot's formula. The expected efficacies for active compound combinations (i.e. secondary magnesium and calcium phosphonate) were determined using Colby's formula.
# [7] = tested on: Sphaerotheca fuliginea and Erysiphe cichoracearum; test: B.7 Protective treatment against Sphaerotheca fuliginea and Erysiphe cichoracearum in cucumber; format: in vivo; settings: Cucumis sativus half-leaf treatment, example 12 diluted 1:100, examples 13/14 1:200, inoculated after 24 h, 18 days after treatment
# Procedure: as §1, with “vein. For this purpose a precision sprayer was used for applying the active compounds on the one leaf half, while the half which was to stay untreated was covered with a blotting paper during spraying.” for “vein.”
# In a greenhouse, leaves of Cucumis sativus plants var. […] 18 days after the treatment with the active compounds the extent of infection (formation of conidia) was determined visually and the efficacy W was calculated from the infected leave surface according to Abbot's formula. The expected efficacies for active compound combinations (i.e. secondary magnesium and calcium phosphonate) were determined using Colby's formula.
Compound,Infected surface area [1] [%],leaves infected with powdery mildew [2] [%],Observed efficacy [3] [%],Observed efficacy [4] [%],Observed efficacy [5] [%],Observed efficacy [6] [%],Observed efficacy [7] [%]
"C/C=C/C=C/C(=O)O [Sorbic acid, sorbic acid]",40,–,–,–,–,–,–
potassium phosphonate,–,100,–,–,–,–,–
secondary calcium phosphonate [Example 14],–,–,24.6,18.3,35.1,11.7,20.0
secondary magnesium phosphonate [Example 13],–,–,16.5,47.3,44.5,36.7,43.3

# From patent US12075784B2, “Mixtures containing secondary calcium and magnesium phosphonate and their use as fungicide or fertilizer” ([…] (haftungsbeschränkt), priority 2016, dated 2024)
